Results on three substances are retold here after patent US20130195866A1, “METHODS TO INHIBIT NEURODEGENERATION” (priority 2010, published 2013).

The subject of assay [1] is NFAT. Briefly: NFAT luciferase reporter assay in cultured neurons. The class given is cell-based, mouse. To be noted: neurons overexpressing CaNCA, with or without AAV-flag-AKAP79, 24 h. As for the experimental part:
Luciferase reporter assay. CaNwt, CaNCA, or NFAT-TA-Luc (Clontech) was subcloned into AAV serotype 2 vector. These plasmids (1 μg) were used […] at 3 DIV. After 24 h, the cells were harvested and luciferase activities were measured with a luminometer using a reagent kit (Luciferase Assay System with Reporter Lysis Buffer; Promega). The background luciferase activity was subtracted from all experiments.
(§1) To examine whether CaN activation is sufficient to cause these morphologic changes, even in the absence of overexpressed APP or exogenously applied Aβ, it was sought to investigate whether the expression of a constitutively-active CaN (CaNCA) can favor morphological changes in wild-type cultured neurons. An AAV vector encoding an HA-tagged CaNCA (AAV-CaNCA) or wild-type CaN (AAV-CaNwt) or an AAV vector control was expressed in cortical cultures. […] Neurons with swollen dendrites were barely detectable in CaNwt-overexpressing cultures, but they were prominently detected in CaNCA-overexpressing cultures (FIG. 10B). […] The latter is similar to the number of dystrophic neurites found in cultures expressing β-galactosidase, an AAV-vector control. Dendritic complexity (FIGS. 10D and 10E) and mean spine density (FIGS. 10F and 100) were reduced in neurons overexpressing CaNCA but not in CaNwt- or vector-overexpressing neurons.

The subject of another assay is C57BL/6J mice. Briefly: Neuronal morphology in intact brain of C57BL/6J mice after intracranial AAV injection. The class given is in vivo, mouse. To be noted: live multiphoton imaging, compared with control vector. The protocol: Intracortical injections and surgery were performed as described previously (Spires et al., 2005; Kuchibhotla et al., 2008; Meyer-Luehmann et al., 2008). Briefly, mice were anesthetized with ketamine (10 mg/kg) and xylazine (1 mg/kg) and placed in a stereotaxic apparatus. The surgical site was sterilized with betadyne and isopropyl alcohol, and a 2-3 mm incision was made in the scalp along the midline between the ears. Burr holes were drilled in the skull, 0.5 mm posterior from bregma, and 0.5 mm lateral to the midsagittal line. Using a Hamilton syringe, 3 μl of virus (titer, 4.2×10^12 viral genomes/ml) was injected 1.2 mm deep in somatosensory cortex at a rate of 0.25 μl/min. After one injection in each burr hole, the scalp was sutured, and the mouse recovered from anesthesia on a heating pad.
Images of GFP-filled neuronal processes and, in the case of APP/PS1 mice, amyloid pathology, and blood vessels were obtained using a Bio-Rad 1024ES multiphoton microscope (Bio-Rad), mounted on an Olympus Optical BX50WI upright microscope. […] A mode-locked titanium/sapphire laser (MaiTai; Spectra Physics) generated two-photon fluorescence with 800 nm excitation, and detectors containing three photomultiplier tubes (Hamamatsu) collected emitted light in the range of 380-480, 500-540, and 560-650 nm (Bacskai et al., 2003). […]

Assay [2] relates to wild-type cultured neurons. Briefly: CaNCA overexpression-induced abnormal morphology in wild-type cultured neurons. The class given is cell-based, mouse. Particulars: for spine density: 15 DIV primary neurons transfected with wtCaN+GFP or CaNCA+GFP (DMSO or VIVIT in medium) or CaNCA+GFP+AKAP79; for GFP-positive neurons with local neuritic dystrophies: of total GFP-positive neurons. As for the experimental part:
FIGS. 10A to 10H show wild-type cultured neurons overexpressing a constitutively active CaN construct, CaNCA, develop abnormal morphology that is a phenocopy of the AD effect. […] Wild-type cultured neurons were infected with AAV-CaNwt or AAV-CaNCA with or without AAV-flag-AKAP79 for twenty-four hours, and then the cell extracts were assayed for luciferase activity. The symbol “*” indicates a p-value of less than 0.05; Data are mean±SD (n=3 experiments each). FIGS. 10B to 10G show images and quantification results of neurodegenerative morphologies observed in wild-type cultured neurons overexpressing CaNCA or a vector. Overexpression of CaNCA, but not CaNwt or vector control, into wild-type cultures induces dendritic dystrophies (FIGS. 10B and 10C; arrows in FIG. 10B indicated local swelling of dendrites), simplification of dendritic arborization (FIGS. 10D and 10E), and spine loss (FIGS. 10F and 10G). […] The symbol “*” indicates a p-value of less than 0.05; The symbol “*” in FIG. 10E indicates a p-value of less than 0.05 (CaNwt vs CaNCA). Data are mean±SD from three independent experiments, each in triplicate. […] Neurons were transfected at 10DIV and analyzed at 14DIV. A decreased spines density spines is observed when CaCA is overexpressed (15.2±1.1) compared with wtCaN (25.9±2.1). This effect was blocked by cotransfection with AKAP79 (25.6±1.0) or by the addition of VIVIT (SEQ ID NO: 7) in the medium (22±1.7). The symbol “**” indicates a p-value of less than 0.001 (ANOVA) and less than 0.05 (post-hoc Student's test). n≧15.
as §1

Assay [3] concerns NFAT. To be noted: in vitro; Macian 2005; cited from earlier work.
The next assay deals with wild-type neurons. Nature of the assay: Baseline maturation of wild-type neurons. The class given is cell-based, mouse. To be noted: VIVIT 2 μM or DMSO. An excerpt: The findings presented herein indicate that nuclear accumulation of NFATc4 occurs in neurons from Tg cultures and in human AD postmortem brain and that Aβ-containing CM from Tg culture is capable of inducing CaN-mediated NFATc4 nuclear localization in wild-type neurons. […] Thus, inhibition of CaN-NFAT interaction and subsequent NFAT nuclear accumulation by VIVIT (SEQ ID NO: 7) blocks TgCM or APP overexpression-induced morphological abnormalities in culture.

For a further assay, the system named is calcineurin. To be noted: Macian 2005; cited from earlier work.
Assay [4] relates to wild-type cultured neurons growing in TgCM. Nature of the assay: TgCM-induced morphological abnormalities in wild-type cultured neurons. The format is cell-based, mouse.
In the next assay the test system is Tg2576 neurons. Nature of the assay: APP overexpression-induced morphological abnormalities in Tg cultures at 21 DIV. The format is cell-based, mouse.
A further assay has as its system NFATc4. Briefly: NFATc4 nuclear translocation (nucleus/cytoplasm ratio) induced by TgCM in wild-type cultured neurons. The format is cell-based, mouse. Particulars: wild-type neurons treated with TgCM for 24 h; VIVIT 2 μM. The protocol:
Immunocytochemistry was performed as described previously in Wu et al. (2004). Briefly, after being treated under different experimental conditions, cells were fixed with 4% paraformaldehyde in PBS, pH 7.4, for 15 min and were then membrane permeabilized with 0.5% Triton X-100 in PBS for 5 min. After blocking with 3% bovine serum albumin at 37° C. for 1 h, cells were incubated with primary antibodies: anti-microtubule-associated protein 2 (MAP2) antibody (1: 200; Sigma), or anti-NFATc4 antibody (1:200; Santa Cruz Biotechnology), anti-HA antibody (1:200; Invitrogen), or anti-Flag antibody (1:200; Sigma), at 4° C. overnight. […] Nuclear NFATc4 staining was determined by overlap of NFATc4 staining with Hoechst nuclear staining. […]
Soluble plaque-associated bioactive molecules, possibly assemblies of Aβ, may be responsible for the “halo” effect of neuritic change and [Ca^2+]i alterations near plaques (Kuchibhotla et al., 2008; Meyer-Luehmann et al., 2008; Koffie et al., 2009). […] (NFATc4 and MAP2 images used for quantification of nucleus/cytoplasm ratio of NFATc4 are not shown.) To better characterize the specific role of Aβ oligomers in CaN-mediated NFATc4 activation, nondenaturing size exclusion chromatography (SEC) was used to isolate the various Aβ species from TgCM. […]

The mark [5] stands for this setting: wild-type neurons growing in TgCM, VIVIT 2 μM.
Where [6] appears, read: Tg cultures at 21 DIV, compared with wild type.

Ends that are not written are not given here.

Regarding “CaNCA: constitutively active truncated 45 kDa form of mouse CaN (amino acid residues 1-399), expressed from an AAV vector”, in the assay on NFAT [1], the NFAT-luciferase activity entry is reported as “significantly increased”. Moreover, in the assay with C57BL/6J mice, the spine density entry is recorded as “significantly decreased”. For the same substance, in assay [2], the spine density worked out at 15.2±1.1 and the “GFP-positive neurons with local neuritic dystrophies” value was “Approximately 15%”.

Consider “CaNwt: wild type mouse CaN expressed from an AAV vector”, for which the spine density result in the assay with C57BL/6J mice was “comparable with control vector-injected mice”; in assay [2], 25.9±2.1. Moreover, the “GFP-positive neurons with local neuritic dystrophies” value in assay [2] is 6%.

“VIVIT: cell-permeable VIVIT peptide that blocks the docking sites for CaN-NFAT interaction (catalog #480401; Calbiochem) (also: 11R cell-penetrating tag, position and linkage not given here)”: in the assay with NFAT [3], the NFAT dephosphorylation result was “block NFAT dephosphorylation”. Also, the “number of neurons with dendritic dystrophies, dendritic processes and spine density” value in the assay on wild-type neurons was “No significant changes”. The “competition for calcineurin binding” value in the assay on calcineurin is listed as “compete with NFAT proteins for calcineurin binding”. Besides, the spine density result in assay [4] (primary neurons treated with TgCM for 24 h, 1 μM FK506, 2 μM VIVIT or AKAP79 transfection (FIG. 8I)) is recorded as “restored”. Further, in [4] (setting [5]), the “dendritic complexity (Sholl analysis)” value was “increased dendritic complexity”, the dendritic spine density entry is “increased” and the “number of neurons with dendritic dystrophies” value is given as “reduced numbers of neurons with dendritic dystrophies”. Besides, in the assay on Tg2576 neurons (setting [6]), the “dendritic complexity / dendritic attenuation” value is “prevented”, the “mean spine density / spine loss” value is on record as “prevented” and the “number of neurons with dendritic dystrophies” value is “prevented”. Also, the “overall morphology during maturation” value in the assay with Tg2576 neurons (Tg neurons, treatment from 3 DIV (3D6, AKAP79) or VIVIT vs DMSO) is on record as “dramatically improved morphology”. Moreover, in the assay on NFATc4, the “nucleus/cytoplasm ratio of NFATc4” value is recorded as “abolished”. In addition, in assay [2], the spine density amounted to 22±1.7. Further, the “CaNCA overexpression-induced dendritic spine loss” value in [2] (wild-type cultured neurons overexpressing CaNCA) is “virtually eliminate”.
